Results as given in US8455475B2 (Gruenenthal GmbH, priority 2009, dated 2013).

How the values were obtained:
[1] = biological target: T1, human B1R (bradykinin receptor 1) (Homo sapiens, UniProt P46663); experiment: FLIPR Ca2+ assay (Fluo-4) on CHO K1 cells stably transfected with the human B1R gene (hB1R cells): % inhibition at 10 μM / IC50, agonist Lys-Des-Arg9-bradykinin; format: cell-based; details: for inhibition at 10 µM: CHO-K1, human B1R
T1 construct: expressed in transfected cells; host or cells: CHO K1 cells
T1 sequence (P46663 1-353): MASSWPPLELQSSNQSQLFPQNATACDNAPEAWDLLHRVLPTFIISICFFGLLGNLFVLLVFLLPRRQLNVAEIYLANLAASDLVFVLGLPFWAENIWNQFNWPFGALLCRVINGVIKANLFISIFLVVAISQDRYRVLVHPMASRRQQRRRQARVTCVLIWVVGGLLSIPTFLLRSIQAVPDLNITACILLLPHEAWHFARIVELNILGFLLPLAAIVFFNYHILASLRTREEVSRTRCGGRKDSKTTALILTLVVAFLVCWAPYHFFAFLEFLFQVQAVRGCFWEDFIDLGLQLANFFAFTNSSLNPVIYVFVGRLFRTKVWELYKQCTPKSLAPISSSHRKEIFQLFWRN
Experimental: The agonistic or antagonistic action of substances can be quantified on the bradykinin receptor 1 (B1R) of the human and rat species with ectopically expressing cell lines (CHO K1 cells) and with the aid of a Ca^2+-sensitive dyestuff (Fluo-4) in a fluorescent imaging plate reader (FLIPR). The figure in % activation is based on the Ca^2+ signal after addition of Lys-Des-Arg^9-bradykinin (0.5 nM) or Des-Arg^9-bradykinin (100 nM). Antagonists lead to a suppression of the Ca^2+ inflow after addition of the agonist. % inhibition compared with the maximum achievable inhibition is stated.
The agonistic or antagonistic action of substances can be determined on the bradykinin receptor 1 (B1R) of the human and rat species with the following assay. In accordance with this assay, the Ca^2+ inflow through the channel is quantified with the aid of a Ca^2+-sensitive dyestuff (type Fluo-4, Molecular Probes Europe BV, Leiden, Holland) in a fluorescent imaging plate reader (FLIPR, Molecular Devices, Sunnyvale, USA).
Chinese hamster ovary cells (CHO K1 cells) transfected stably with the human B1R gene (hB1R cells) or the B1R gene of the rat (rB1R cells) are used. For functional studies, these cells are plated out on black 96-well plates with a clear base (BD Biosciences, Heidelberg, Germany or Greiner, Frickenhausen, Germany) in a density of 20,000-35,000 cells/well. The cells are left overnight at 37° C. and 5% CO2 in culture medium (hB1R cells: Nutrient Mixture Ham's F12, Gibco Invitrogen GmbH, Karlsruhe, Germany or DMEM, Sigma-Aldrich, Taufkirchen, Germany; rB1R cells: D-MEM/F12, Gibco Invitrogen GmbH, Karlsruhe, Germany) with 10 vol. % FBS (foetal bovine serum, Gibco Invitrogen GmbH, Karlsruhe, Germany or PAN Biotech GmbH, Aidenbach, Germany). On the following day, the cells are loaded for 60 min at 37° C. with 2.13 μM Fluo-4 (Molecular Probes Europe BV, Leiden Holland) in HBSS buffer (Hank's buffered saline solution, Gibco Invitrogen GmbH, Karlsruhe, Germany) with 2.5 mM probenecid (Sigma-Aldrich, Taufkirchen, Germany) and 10 mM HEPES (Sigma-Aldrich, Taufkirchen, Germany). The plates are then washed 2× with HBSS buffer, and HBSS buffer which additionally contains 0.1% BSA (bovine serum albumin; Sigma-Aldrich, Taufkirchen, Germany), 5.6 mM glucose and 0.05% gelatine (Merck KGaA, Darmstadt, Germany) is added. After a further incubation of 20 minutes at room temperature, the plates are inserted into the FLIPR for the Ca^2+ measurement. Alternatively, the plates are washed with buffer A (15 mM HEPES, 80 mM NaCl, 5 mM KCl, 1.2 mM CaCl2, 0.7 mM MgSO4, 2 g/l glucose, 2.5 mM probenecid), buffer A is added and the plates are loaded with 2.5 μM Fluo-4 and 0.025% Pluronic F127 (Sigma-Aldrich, Taufkirchen, Germany). Thereafter, the cells are washed 2× with buffer A and incubated for 30 minutes at room temperature with buffer A, which additionally contains 0.05% BSA and 0.05% gelatine, and thereafter inserted into the FLIPR for the Ca^2+ measurement. The Ca^2+-dependent fluorescence is measured here before and after addition of substances (λex=488 nm, λem=540 nm). Quantification is by measurement of the highest fluorescence intensity (FC, fluorescence counts) over time.
The FLIPR protocol consists of 2 additions of substance. Test substances (10 μM) are first pipetted on to the cells and the Ca^2+ inflow is compared with the control (hB1R: Lys-Des-Arg^9-bradykinin>=50 nM; rB1R: Des-Arg^9-bradykinin 10 μM). This gives the result in % activation based on the Ca^2+ signal after addition of Lys-Des-Arg^9-bradykinin (>=50 nM) or Des-Arg^9-bradykinin (10 μM). After incubation for 10-20 minutes, Lys-Des-Arg^9-bradykinin (hB1R) or Des-Arg^9-bradykinin (rB1R) in the concentration of the EC80 is applied and the inflow of Ca^2+ is likewise determined. Antagonists lead to a suppression of the Ca^2+ inflow. % inhibition compared with the maximum achievable inhibition is calculated.
For determination of the IC50 value, the substances are added in various concentrations. […]

[2] = biological target: T2, rat B1R (bradykinin receptor 1) (Rattus norvegicus, UniProt P97583); experiment: FLIPR Ca2+ assay (Fluo-4) on CHO K1 cells stably transfected with the B1R gene of the rat (rB1R cells): % inhibition at 10 μM / IC50, agonist Des-Arg9-bradykinin; format: cell-based; details: for inhibition at 10 µM: CHO-K1, rat B1R
T2 construct: expressed in transfected cells; host or cells: CHO K1 cells
T2 sequence (P97583 1-337): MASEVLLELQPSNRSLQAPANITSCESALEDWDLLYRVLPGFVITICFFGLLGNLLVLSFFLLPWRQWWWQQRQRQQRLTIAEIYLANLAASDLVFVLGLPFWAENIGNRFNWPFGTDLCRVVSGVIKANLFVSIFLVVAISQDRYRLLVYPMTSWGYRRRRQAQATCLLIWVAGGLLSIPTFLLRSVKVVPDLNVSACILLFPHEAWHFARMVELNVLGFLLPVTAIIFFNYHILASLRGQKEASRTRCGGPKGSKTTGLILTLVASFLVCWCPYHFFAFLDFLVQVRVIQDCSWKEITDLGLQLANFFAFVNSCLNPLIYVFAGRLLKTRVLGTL
Summary of the method: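 Loading with Fluo-4 occurs for 60 min at 37 °C, or alternatively in buffer A, before FLIPR measurement. Compounds are applied, incubated 10–20 min, and then the EC80 agonist is added. Antagonism appears as reduced peak Ca2+ signal relative to maximal inhibition.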

inhibition at 10 µM [1]	inhibition at 10 µM [2]	Compound	also measured
100%	97%	O=C(c1ccc2c(c1)C(N1Cc3cccc(Cl)c3C1=O)CC2)N1CCC2(CC1)CCN(c1ccncc1)CC2 (centres unmarked) [Example H-01, 7-chloro-2-[6-(9-pyridin-4-yl-3,9-diazaspiro[5.5]undecane-3-carbonyl)-2,3-dihydro-1H-indan-1-yl]-2,3-dihydro-isoindol-1-one]	–
60%	98%	O=C(NC1CCc2ccc(C(=O)N3CCC4(CCC(N5CCC5)CC4)CC3)cc21)c1ccccc1Cl (centres unmarked) [Example H-06, N-[6-[9-(azetidin-1-yl)-3-azaspiro[5.5]undecane-3-carbonyl)-2,3-dihydro-1H-indan-1-yl]-2-chloro-benzamide]	–
34%	69%	O=C(NC1CCc2ccc(C(=O)N3CCC4(CCC(N5CC(F)(F)C5)CC4)CC3)cc21)c1ccccc1Cl (centres unmarked) [Example H-07, 2-chloro-N-[6-[9-(3,3-difluoro-azetidin-1-yl)-3-azaspiro[5.5]undecane-3-carbonyl]-2,3-dihydro-1H-inden-1-yl]-benzamide]	–
100%	102%	O=C(N[C@@H]1CCCc2ccc(C(=O)N3CCC4(CC3)CCN(c3ccncc3)CC4)cc21)c1ccccc1Cl [Example H-09, 2-chloro-N-[(1R)-7-(9-pyridin-4-yl-3,9-diazaspiro[5.5]undecane-3-carbonyl)-1,2,3,4-tetrahydro-naphthalen-1-yl]-benzamide]	–
99%	103%	O=C(N[C@@H]1CCCc2ccc(C(=O)N3CCC4(CCN(c5ccncc5)CC4)C3)cc21)c1ccccc1Cl [Example H-11, 2-chloro-N-[(1R)-7-(8-pyridin-4-yl-3,8-diazaspiro[4.5]decane-3-carbonyl]-1,2,3,4-tetrahydro-naphthalen-1-yl]-benzamide]	–
100%	101%	O=C(c1ccc2c(c1)[C@H](N1Cc3cccc(Cl)c3C1=O)CCC2)N1CCC2(CCN(c3ccncc3)CC2)C1 [Example H-13, 7-chloro-2-[(1R)-7-(8-pyridin-4-yl-3,8-diazaspiro[4.5]decane-3-carbonyl)-1,2,3,4-tetrahydro-naphthalen-1-yl]-2,3-dihydro-isoindol-1-one]	–
91%	101%	O=C(c1ccc2c(c1)[C@H](N1Cc3cccc(Cl)c3C1=O)CCC2)N1CCC2(CC1)CCN(c1ccncc1)CC2 [Example H-14, 7-chloro-2-[(1R)-7-(9-pyridin-4-yl-3,9-diazaspiro[5.5]undecane-3-carbonyl)-1,2,3,4-tetrahydro-naphthalen-1-yl]-2,3-dihydro-isoindol-1-one]	–

Second part, the compound before the results:

Compound	inhibition at 10 µM [1]	inhibition at 10 µM [2]	also measured
2-Chloro-N-[2,2-dimethyl-6-(9-pyridin-4-yl-3,9-diazaspiro[5.5]undecane-3-carbonyl)-1,3-dihydro-inden-1-yl]-3-(trifluoromethyl)-benzamide [IND_CC-234]	–	–	% Inhibition (human B1R) at 10 μM [1]: 85%; % Inhibition (rat B1R) at 10 μM [2]: 99%
2-Chloro-N-[6-(2-pyridin-4-yl-2,8-diazaspiro[4.5]decane-8-carbonyl)-2,3-dihydro-1H-inden-1-yl]-6-(trifluoromethyl)-benzamide [IND_CC-205]	–	–	% Inhibition (human B1R) at 10 μM [1]: 100%; % Inhibition (rat B1R) at 10 μM [2]: 103%
O=C(NC1CCc2ccc(C(=O)N3CCC4(CC3)CCN(c3ccncc3)CC4)cc21)c1ccccc1Cl (centres unmarked) [Example H-02, 2-chloro-N-[6-(3-pyridin-4-yl-3,9-diazaspiro[5.5]undecane-9-carbonyl)-2,3-dihydro-1H-inden-1-yl]-benzamide]	–	–	% Inhibition (human B1R) at 10 μM ([1]; 10 µM): 100%; % Inhibition (rat B1R) at 10 μM ([2]; 10 µM): 100%
COc1cc(C)c(S(=O)(=O)NC2CCc3ccc(C(=O)N4CCC5(CC4)CCN(c4ccncc4)CC5)cc32)c(C)c1 (centres unmarked) [Example H-03, 4-methoxy-2,6-dimethyl-N-[6-(9-pyridin-4-yl-3,9-diazaspiro[5.5]undecane-3-carbonyl)-2,3-dihydro-1H-inden-1-yl)-benzenssulfonic acid amide]	–	–	% Inhibition (human B1R) at 10 μM ([1]; 10 µM): 98%; % Inhibition (rat B1R) at 10 μM ([2]; 10 µM): 104%
O=C(NC1CCc2ccc(C(=O)N3CCC4(CCN(c5ccncc5)C4)C3)cc21)c1ccccc1Cl (centres unmarked) [Example H-04, 2-chloro-N-[6-(8-pyridin-4-yl-3,8-diazaspiro[4.4]nonane-3-carbonyl)-2,3-dihydro-1H-inden-1-yl]-benzamide]	100%	106%	–
O=C(NC1CCc2ccc(C(=O)N3CCC4(CCN(c5ccncc5)CC4)C3)cc21)c1ccccc1Cl (centres unmarked) [Example H-05, 2-chloro-N-[6-(8-pyridin-4-yl-3,8-diazaspiro[4.5]decane-3-carbonyl)-2,3-dihydro-1H-inden-1-yl]-benzamide]	–	–	% Inhibition (human B1R) at 10 μM [1]: 100%; % Inhibition (rat B1R) at 10 μM ([2]; 10 µM): 105%
O=C(NC1CCc2ccc(C(=O)N3CCC4(CCC(Oc5ccncc5)CC4)CC3)cc21)c1ccccc1Cl (centres unmarked) [Example H-08]	71%	100%	–
O=C(N[C@H]1CCCc2ccc(C(=O)N3CCC4(CC3)CCN(c3ccncc3)CC4)cc21)c1ccccc1Cl [Example H-10, 2-chloro-N-[(1S)-7-(9-pyridin-4-yl-3,9-diazaspiro[5.5]undecane-3-carbonyl)-1,2,3,4-tetrahydro-naphthalen-1-yl]-benzamide]	49%	103%	–
O=C(N[C@H]1CCCc2ccc(C(=O)N3CCC4(CCN(c5ccncc5)CC4)C3)cc21)c1ccccc1Cl [Example H-12, 2-chloro-N-[(1S)-7-(8-pyridin-4-yl-3,8-diazaspiro[4.5]decane-3-carbonyl]-1,2,3,4-tetrahydro-naphthalen-1-yl]-benzamide]	97%	102%	–
